Results on 1 substance are retold here after patent US20170326356A1, “METHODS FOR TREATING PSYCHIATRIC DISORDERS” (priority 2016, published 2017).

Entries after “also recorded” stand apart in the source; their conditions may differ.

For test [1], the system named is offspring of pregnant dams. The test is described as follows: Analysis of cortical patches (absence of SATB2 or TBR1 expression) in offspring after maternal immune activation. The test is classed as in vivo, mice. The procedure: (§1) Mice were mated overnight and females were checked daily for the presence of seminal plugs, noted as embryonic day 0.5 (E0.5). On E12.5, pregnant female mice were weighed and injected with a single dose (20 mg/kg i.p.) of poly(I:C) (Sigma Aldrich, USA) or PBS vehicle. Each dam was returned to its cage and left undisturbed until the birth of its litter. All pups remained with the mother until weaning on postnatal day 21 (P21), at which time mice were group housed at a maximum of 5 per cage with same-sex littermates. For checking the effect of poly(I:C) administration at different time points during pregnancy, the present inventors injected poly(I:C) into pregnant dams on E12.5, E15.5, or E18.5.
For cryosectioning, animals were intracardially perfused, and the brain was dissected out, fixed with 4% paraformaldehyde in PBS overnight at 4° C., and cryoprotected in 30% sucrose solution. The left hemisphere was marked with a needle and the sections were coronally sliced at 40 μm using a cryostat (Leica, USA). For vibratome sectioning, animals were intracardially perfused, and the brain was fixed with 4% paraformaldehyde in PBS overnight at 4° C. The brains were coronally sliced at 50 μm with a Leica VT1000S vibratome (Leica, USA).
Slices were permeabilized with blocking solution containing 0.4% Triton X-100 and 2% goat serum in PBS for 1 h at room temperature (RT) and then incubated with anti-rabbit-TBR1 (ab31940, Abcam, USA), anti-mouse-SATB2 (ab51502, Abcam, USA), anti-rabbit-PV (PV27, Swant, Switzerland), anti-rabbit-VIP (20077, Immunostar, USA), anti-mouse-NeuN (MAB377X, Millipore, USA), or anti-rabbit-c-Fos (sc-7270, Santa Cruz, USA) antibodies overnight at 4° C. […]
Cortical patches were identified by the absence of SATB2 or TBR1 expression. Spatial locations of the cortical patches were determined based on their distance from the midline of the brain and the layer structures of the cortex. […] The size of the cortical patches was calculated using Zen software (Carl Zeiss, Germany).

Test [2] relates to offspring of pregnant dams. The test is described as follows: Ultrasonic vocalizations of pups. The test is classed as in vivo, mice. The procedure:
as §1
On postnatal day 9, mouse pup ultrasonic vocalizations (USVs) were detected for 3 min using an Ultra-Sound Gate CM16/CMPA microphone (AviSoft, Germany) and SAS Prolab software (AviSoft, Germany) in a sound attenuation chamber under stable temperature (19-22° C.) and light control (15 lux).

Turning to “polyinosinic:polycytidylic acid [poly(I:C)]”, the “offspring with cortical patches in the S1” value in test [1] (dams injected at E12.5, 20 mg/kg i.p.) is given as 77%; in test [1] (dams injected at E15.5), 13%; in test [1] (dams injected at E18.5) it was “none”. In addition, the “USV calls made by pups upon separation from mothers at P9” value is on record as “emitted more ultrasonic vocalization (USV) calls” in test [2] (dams injected at E12.5, versus PBS offspring) and “This finding was not observed; also recorded: such an increase was not observed” in test [2] (dams injected at E15.5 or E18.5).
